Where two headings read alike, the source gives them in different places.
Test system: mesenteric artery
Assay: Relaxation of mesenteric artery (helical strips contracted with KCl, organ bath)
Parameters: species or system rabbit (home bred, Japanese species)
Details: Oryctolagus cuniculus, read-out: Relaxation of Mesenteric Artery ED50
Experimental: After a home bred rabbit of a Japanese species weighing about 3 Kg was subjected to bloodletting, resulting in death and then to abdominal incision, the mesenteric artery was taken out, cut into helicoids of 2 mm×25 mm and suspended in a 20 ml organ bath filled with a Krebs-Henseleit solution into which a mixed gas of 95% by volume of O2 and 5% by volume of CO2 was introduced and one end of the artery was connected with an isometric transducer. When a load of 1.5 g was applied to the artery, the contraction and the relaxation of the artery were recorded as a weight on the transducer (a product of Nippon Koden K.K., Japan, "FD Pickup TB-912T"). The relaxation of the mesenteric artery was observed by adding the isoquinolinesulfonyl derivatives and their pharmaceutically acceptable acid addition salts of this invention to the mesenteric artery at the condition of about one half of the maximum contraction with KCl at a KCl concentration of 15~20 mM. When the complete relaxation of the mesenteric artery was designated 100%, the concentration of the isoquinolinesulfonyl derivatives and their pharmaceutically acceptable acid addition salts which brought about a relaxation of 50% is shown in Table 12.

[1] = concentration for 50% relaxation, KCl 15~20 mM contraction

EC50 [1] [µM]	Compound	EC50 [µM]
7	NCCCNS(=O)(=O)c1cccc2cnccc12 [Compound (2), N-(3-aminopropyl)-5-isoquinolinesulfonamide]	
10	NCCCCCCNS(=O)(=O)c1cccc2cnccc12 [Compound (4), N-(6-aminohexyl)-5-isoquinolinesulfonamide]	
14	NCCCCCCCCCCNS(=O)(=O)c1cccc2cnccc12 [Compound (5), N-(10-aminodecyl)-5-isoquinolinesulfonamide]	
10	CC(CN)NS(=O)(=O)c1cccc2cnccc12 (stereo not drawn) [Compound (6), N-(2-amino-1-methylethyl)-5-isoquinolinesulfonamide]	
21	CCC(CN)NS(=O)(=O)c1cccc2cnccc12 (stereo not drawn) [Compound (7), N-(1-aminomethylpropyl)-5-isoquinolinesulfonamide]	
19	CCCCC(CN)NS(=O)(=O)c1cccc2cnccc12 (stereo not drawn) [Compound (8), N-(1-aminomethylpentyl)-5-isoquinolinesulfonamide]	
15	CC(N)CNS(=O)(=O)c1cccc2cnccc12 (stereo not drawn) [Compound (9), N-(2-aminopropyl)-5-isoquinolinesulfonamide]	
28	CC(C)C(N)CNS(=O)(=O)c1cccc2cnccc12 (stereo not drawn) [Compound (11), N-(2-amino-3-methylbutyl)-5-isoquinolinesulfonamide]	
18	NCC(NS(=O)(=O)c1cccc2cnccc12)c1ccccc1 (stereo not drawn) [Compound (12), N-(2-amino-1-phenylethyl)-5-isoquinolinesulfonamide]	
25	NC(CNS(=O)(=O)c1cccc2cnccc12)c1ccccc1 (stereo not drawn) [Compound (13), N-(2-amino-2-phenylethyl)-5-isoquinolinesulfonamide]	
12	CNCCNS(=O)(=O)c1cccc2cnccc12 [Compound (14), N-(2-methylaminoethyl)-5-isoquinolinesulfonamide]	
10	CC(C)NCCNS(=O)(=O)c1cccc2cnccc12 [Compound (16), N-(2-isopropylaminoethyl)-5-isoquinolinesulfonamide]	
10	CN(C)CCCNS(=O)(=O)c1cccc2cnccc12 [Compound (17), N-(3-dimethylaminopropyl)-5-isoquinolinesulfonamide]	
30	CCN(CC)CCCNS(=O)(=O)c1cccc2cnccc12 [Compound (18), N-(3-diethylaminopropyl)-5-isoquinolinesulfonamide]	
42	O=S(=O)(NCCCN1CCCCC1)c1cccc2cnccc12 [Compound (20), N-(3-piperidinopropyl)-5-isoquinolinesulfonamide]	
50	O=S(=O)(NCCCN1CCOCC1)c1cccc2cnccc12 [Compound (21), N-(3-morpholinopropyl)-5-isoquinolinesulfonamide]	
42	CN(CCCNS(=O)(=O)c1cccc2cnccc12)C1CCCCC1 [Compound (22), N-[3-(N-methyl-N-cyclohexylamino)propyl]-5-isoquinolinesulfonamide]	
4	CN(CCCNS(=O)(=O)c1cccc2cnccc12)c1ccccc1 [Compound (23), N-[3-(N-methyl-N-phenylamino)propyl]-5-isoquinolinesulfonamide]	
17	CN(CCCNS(=O)(=O)c1cccc2cnccc12)Cc1ccccc1 [Compound (24), N-[3-(N-methyl-N-benzylamino)propyl]-5-isoquinolinesulfonamide]	
8.8	CCNS(=O)(=O)c1cccc2cnccc12 [Compound (26), N-ethyl-5-isoquinolinesulfonamide]	
21	CCCCNS(=O)(=O)c1cccc2cnccc12 [Compound (27), N-n-Butyl-5-isoquinolinesulfonamide]	
19	CC(C)CNS(=O)(=O)c1cccc2cnccc12 [Compound (28), N-isobutyl-5-isoquinolinesulfonamide]	

EC50 [1] [µM]	Compound	EC50 [µM]
13	CN(C)S(=O)(=O)c1cccc2cnccc12 [Compound (29), N,N-dimethyl-5-isoquinolinesulfonamide]	
8.9	CCN(CC)S(=O)(=O)c1cccc2cnccc12 [Compound (30), N,N-diethyl-5-isoquinolinesulfonamide]	
28	CCCCN(CCCC)S(=O)(=O)c1cccc2cnccc12 [Compound (31), N,N-di-n-butyl-5-isoquinolinesulfonamide]	
16	O=S(=O)(c1cccc2cnccc12)N1CCCCC1 [Compound (32), 1-(5-isoquinolinesulfonyl)piperidine]	
10	O=S(=O)(c1cccc2cnccc12)N1CCOCC1 [Compound (34), 1-(5-isoquinolinesulfonyl)morpholine]	
	CC1CNCCN1S(=O)(=O)c1cccc2cnccc12 (stereo not drawn) [Compound (38), 1-(5-isoquinolinesulfonyl)-2-methylpiperazine]	5
9.5	CC1CN(S(=O)(=O)c2cccc3cnccc23)CC(C)N1 (stereo not drawn) [Compound (39), 1-(5-isoquinolinesulfonyl)-3,5-dimethylpiperazine]	
1.5	CC1NCCN(S(=O)(=O)c2cccc3cnccc23)C1C (stereo not drawn) [Compound (41), 1-(5-isoquinolinesulfonyl)-2,3-dimethylpiperazine]	
18	CCN1CCN(S(=O)(=O)c2cccc3cnccc23)CC1 [Compound (42), 1-(5-isoquinolinesulfonyl)-4-ethylpiperazine]	
6.1	CCC1CN(S(=O)(=O)c2cccc3cnccc23)CCN1 (stereo not drawn) [Compound (43), 1-(5-isoquinolinesulfonyl)-3-ethylpiperazine]	
8.6	CCCN1CCN(S(=O)(=O)c2cccc3cnccc23)CC1 [Compound (44), 1-(5-isoquinolinesulfonyl)-4-n-propylpiperazine]	
7.5	CC(C)C1CN(S(=O)(=O)c2cccc3cnccc23)CCN1 (stereo not drawn) [Compound (45), 1-(5-isoquinolinesulfonyl)-3-isopropylpiperazine]	
24	CC(C)CN1CCN(S(=O)(=O)c2cccc3cnccc23)CC1 [Compound (47), 1-(5-isoquinolinesulfonyl)-4-isobutylpiperazine]	
1.8	CCC1CN(S(=O)(=O)c2cccc3cnccc23)C(CC)CN1 (stereo not drawn) [Compound (48), 1-(5-isoquinolinesulfonyl)-2,5-diethylpiperazine]	
10	CC(C)CC1CN(S(=O)(=O)c2cccc3cnccc23)C(C)CN1 (stereo not drawn) [Compound (49), 1-(5-isoquinolinesulfonyl)-2-methyl-5-isobutylpiperazine]	
16	CC1CNC(Cc2ccccc2)CN1S(=O)(=O)c1cccc2cnccc12 (stereo not drawn) [Compound (50), 1-(5-isoquinolinesulfonyl)-2-methyl-5-benzylpiperazine]	
7	O=S(=O)(c1cccc2cnccc12)N1CCNC(c2ccccc2)C1 (stereo not drawn) [Compound (53), 1-(5-isoquinolinesulfonyl)-3-phenylpiperazine]	
11	O=S(=O)(c1cccc2cnccc12)N1CCNC(Cc2ccccc2)C1 (stereo not drawn) [Compound (54), 1-(5-isoquinolinesulfonyl)-3-benzylpiperazine]	
9	O=S(=O)(c1cccc2cnccc12)N1CCN(c2ccccc2)CC1 [Compound (55), 1-(5-isoquinolinesulfonyl)-4-phenylpiperazine]	
23	O=S(=O)(c1cccc2cnccc12)N1CCN(Cc2ccccc2)CC1 [Compound (56), 1-(5-isoquinolinesulfonyl)-4-benzylpiperazine]	
12	O=S(=O)(c1cccc2cnccc12)N1CCN(CCc2ccccc2)CC1 [Compound (57), 1-(5-isoquinolinesulfonyl)-4-phenethylpiperazine]	
40	O=C(c1ccccc1)N1CCN(S(=O)(=O)c2cccc3cnccc23)CC1 [Compound (58), 1-(5-isoquinolinesulfonyl)-4-benzoylpiperazine]	

Compound	EC50 [1] [µM]	EC50 [µM]
NCCCCNS(=O)(=O)c1cccc2cnccc12 [Compound (3), N-(4-aminobutyl)-5-isoquinolinesulfonamide]	11	
CCCCN(CCCC)CCCNS(=O)(=O)c1cccc2cnccc12 [Compound (19), N-(3-di-n-butylaminopropyl)-5-isoquinolinesulfonamide]	17	
CNS(=O)(=O)c1cccc2cnccc12 [Compound (25), N-methyl-5-isoquinolinesulfonamide]	13	
O=S(=O)(c1cccc2cnccc12)N1CCCC1 [Compound (33), 1-(5-isoquinolinesulfonyl)pyrrolidine]	11	
CN1CCN(S(=O)(=O)c2cccc3cnccc23)CC1 [Compound (36), 1-(5-isoquinolinesulfonyl)-4-methylpiperazine]	7.7	
CC1CN(S(=O)(=O)c2cccc3cnccc23)CCN1 (stereo not drawn) [Compound (37), 1-(5-isoquinolinesulfonyl)-3-methylpiperazine]	4	
CC1CN(S(=O)(=O)c2cccc3cnccc23)C(C)CN1 (stereo not drawn) [Compound (40), 1-(5-isoquinolinesulfonyl)-2,5-dimethylpiperazine]	0.6	
CC(C)CC1CN(S(=O)(=O)c2cccc3cnccc23)CCN1 (stereo not drawn) [Compound (46), 1-(5-isoquinolinesulfonyl)-3-isobutylpiperazine]	6.5	
CCCCCCN1CCN(S(=O)(=O)c2cccc3cnccc23)CC1 [Compound (51), 1-(5-isoquinolinesulfonyl)-4-hexylpiperazine]	19	
O=S(=O)(c1cccc2cnccc12)N1CCN(CC=Cc2ccccc2)CC1 [Compound (59), 1-(5-isoquinolinesulfonyl)-4-cinnamylpiperazine]	6.8	
